In patent US9447086B2, “6-amino acid heteroaryldihydropyrimidines for the treatment and prophylaxis of hepatitis B virus infection” (priority 2012, dated 2016):
Converted amounts (≈) assume the structure as drawn.

Experiments:
[1] = system: HBV; assay: Anti-HBV activity in vitro in HepG2.2.15 cells (extracellular HBV DNA by qPCR); format: cell-based, Hepatitis B virus; settings: Hepatitis B virus; HepG2.2.15 cells; in-house data; read-out: EC50
Text: (§1) HepG2.2.15 and HepDE19 are stably-transfected cell lines containing the HBV genome. Both cell lines are derived from the hepatoblastoma cell line Hep G2 (American Type Culture Collection, ATCC® HB-8065™) by the published procedures described in references: MA Selles et al. Proc. Natl. Acad. Sci. USA 1987, 84, 1005-1009 and H Guo et al. Journal of Virology 2007, 81, 12472-12484, respectively. Both cell lines were maintained in Dulbecco's modified Eagle's medium (DMEM)-F12 medium supplemented with 10% fetal bovine serum, 100 U/mL penicillin, 100 μg/mL streptomycin, and 0.5 mg/mL of G418.
While HepG2.2.15 cells constitutively support HBV replication and production of virus particles, HepDE19 cells are inducible by tetracycline. Addition of 1 μg/mL tetracycline in culture medium suppresses HBV replication in HepDE19 cells, whereas switching to tetracycline-free medium resumes this process.
HepG2.2.15 cells were seeded into 96-well plates (3×10^4 cells in 100 μl media per well) and incubated overnight at 37° C. The test compounds were serially half-log diluted in DMSO, then diluted 100 times in culture media. 100 μL diluted compounds were added into the plates to reach 0.5% final concentration of DMSO in every well. Five days after compound treatment, culture supernatant was collected for further analysis.
For quantitative PCR detection of extracellular HBV DNA, 100 μL culture supernatant was collected and processed in MagNA Pure 96 Nucleic Acid Purification System (Roche Applied Science) for viral DNA extraction. The extracted samples were subjected to HBV DNA quantification by qPCR.
The compounds of the present invention were tested for their capacity to inhibit a HBV activity and activation as described herein.

[2] = Cytotoxicity (CC50) in HepDE19 cells, CCK-8 cell viability; format: cell-based; settings: human, HepDE19 cells; read-out: CC50
Text: as §1
Five days after treatment, cell viability was measured by addition of 20 μL of CCK-8 reagent. Two hours after incubation at 37° C., the absorbance at wavelengths of 450 nm and 630 nm (OD450 and OD630) was recorded by a plate reader.

[3] = system: HBV; assay: Selectivity index (CC50 value/EC50 value); format: cell-based, Hepatitis B virus
Text: Based on FDA guidance, in order to support clinical testing in humans, the assessment of acceptable risk-benefit has to be achieved by providing clear evidence of in vitro antiviral activity (EC50) and cytotoxicity (CC50). It is important to establish that an investigational product has antiviral activity at concentrations that can be achieved in vivo without inducing toxic effects to cells. Furthermore, in a cell culture model, apparent antiviral activity of an investigational product can be the result of host cell death after exposure to the product. The relative effectiveness of the compound in inhibiting viral replication compared to inducing cell death is defined as the selectivity index (CC50 value/EC50 value). It is desirable to have a high selectivity index giving maximum antiviral activity with minimal cell toxicity.
The relative effectiveness of the compound in inhibiting viral replication compared to inducing cell death is defined as the selectivity index (CC50 value/EC50 value). It is desirable to have a high selectivity index giving maximum antiviral activity with minimal cell toxicity.

[4] = Metabolic stability study in human microsome; format: in vitro ADME
Method in brief: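 Depletion of 1 μM compound followed by LC-MS/MS over 0–30 min (0, 3, 6, 9, 15, 30 min) after methanol quench. Incubations at 37 °C, pH 7.4 phosphate buffer, 0.5 mg/mL microsomal protein, with NADPH (1 mM) or a regenerating system as cofactor; controls lacked cofactor.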

[5] = Lyophilisation solubility assay (Lysa); format: physicochemical; settings: phosphate buffer, pH 6.5, aqueous buffer, thermodynamic from solid
Method in brief: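 Solubility in μg/mL is read by UV or HPLC-UV on filtrate, neat and diluted 1/10. Before filtration, the residue from evaporated 10 mM DMSO stock was taken up in pH 6.5 0.05 M phosphate buffer, then stirred 1 h, shaken 2 h and stood overnight, in duplicate.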

SMILES	EC50 [1]	CC50 at 5 days [2]	Selectivity index (CC50/EC50) [3]	Human Hepatic Clearance [4]	solubility thermodynamic [5]
CCOC(=O)C1=C(CN2CCOC[C@H]2C(=O)O)NC(c2nccs2)=N[C@H]1c1ccc(F)c(F)c1 [Example 42, (S)-4-[(S)-6-(3,4-Difluoro-phenyl)-5-ethoxycarbonyl-2-thiazol-2-yl-3,6-dihydro-pyrimidin-4-ylmethyl]-morpholine-3-carboxylic acid]	10 nM	> 100000 nM	>10000	5.56 mL/min/kg	> 613 µg/mL
CCOC(=O)C1=C(CN2CC(F)(F)C[C@H]2C(=O)O)NC(c2nccs2)=N[C@H]1c1ccc(Cl)cc1Cl [Example 38, (R)-6-((S)-2-Carboxy-4,4-difluoro-pyrrolidin-1-ylmethyl)-4-(2,4-dichloro-phenyl)-2-thiazol-2-yl-1,4-dihydro-pyrimidine-5-carboxylic acid ethyl ester]	3.3 nM	21000 nM	6315	9.3 mL/min/kg	291 µg/mL (≈ 534 µM)
CCOC(=O)C1=C(CN2CC(F)(F)C[C@H]2C(=O)O)NC(c2nccs2)=N[C@H]1c1ccc(F)c(F)c1 [Example 41, (S)-6-((S)-2-Carboxy-4,4-difluoro-pyrrolidin-1-ylmethyl)-4-(3,4-difluoro-phenyl)-2-thiazol-2-yl-1,4-dihydro-pyrimidine-5-carboxylic acid ethyl ester]	17 nM	40000 nM	2372	6.83 mL/min/kg	> 630 µg/mL
CCOC(=O)C1=C(CN2CCOC[C@H]2C(=O)O)NC(c2nccn2C)=N[C@H]1c1ccc(F)c(F)c1 [Example 57, (S)-4-[(S)-6-(3,4-Difluoro-phenyl)-5-ethoxycarbonyl-2-(1-methyl-1H-imidazol-2-yl)-3,6-dihydro-pyrimidin-4-ylmethyl]-morpholine-3-carboxylic acid]	15 nM	35000 nM	2384	0 mL/min/kg	> 613 µg/mL
CCOC(=O)C1=C(CN2CC(F)(F)C[C@H]2C(=O)O)NC(c2nccs2)=N[C@H]1c1ccc(Br)cc1 [Example 130, (2S)-1-[[(4S)-4-(4-Bromophenyl)-5-ethoxycarbonyl-2-(1,3-thiazol-2-yl)-1,4-dihydropyrimidin-6-yl]methyl]-4,4-difluoropyrrolidine-2-carboxylic acid]	6 nM	17000 nM	2833	3.92 mL/min/kg	> 625 µg/mL
COC(=O)C1=C(CN2CC(F)(F)C[C@H]2C(=O)O)NC(c2nccn2C)=N[C@H]1c1ccc(F)cc1Cl [Example 32, (R)-6-((S)-2-Carboxy-4,4-difluoro-pyrrolidin-1-ylmethyl)-4-(2-chloro-4-fluoro-phenyl)-2-(1-methyl-1H-imidazol-2-yl)-1,4-dihydro-pyrimidine-5-carboxylic acid methyl ester]	13 nM	40000 nM	3125	5.04 mL/min/kg	632 µg/mL (≈ 1230 µM)
CCOC(=O)C1=C(CN2CCOC[C@H]2C(=O)O)NC(c2nccs2)=N[C@H]1c1ccc(F)cc1Br [Example 122, (S)-4-(((R)-6-(2-Bromo-4-fluorophenyl)-5-(ethoxycarbonyl)-2-(thiazol-2-yl)-3,6-dihydropyrimidin-4-yl)methyl)morpholine-3-carboxylic acid]	1.3 nM	73000 nM	55769	1.58 mL/min/kg	> 722 µg/mL
COC(=O)C1=C(CN2CC(F)(F)CC[C@H]2C(=O)O)NC(c2nccs2)=N[C@H]1c1cccc(F)c1Cl [Example 109, (R)-6-((S)-2-Carboxy-5,5-difluoro-piperidin-1-ylmethyl)-4-(2-chloro-3-fluoro-phenyl)-2-thiazol-2-yl-1,4-dihydro-pyrimidine-5-carboxylic acid methyl ester]	4.4 nM	55000 nM	12500	1.25 mL/min/kg	> 657 µg/mL
COC(=O)C1=C(CN2CCOC[C@H]2C(=O)O)NC(c2ncoc2C)=N[C@H]1c1ccc(F)cc1Br [Example 65, (S)-4-[(R)-6-(2-Bromo-4-fluoro-phenyl)-5-methoxycarbonyl-2-(5-methyl-oxazol-4-yl)-3,6-dihydro-pyrimidin-4-ylmethyl]-morpholine-3-carboxylic acid]	7.6 nM	> 100000 nM	>13157	1.67 mL/min/kg	> 678 µg/mL
CCOC(=O)C1=C(CN2CCOC[C@H]2C(=O)O)NC(c2ncoc2C)=N[C@H]1c1ccc(F)cc1Br [Example 69, (S)-4-[(R)-6-(2-Bromo-4-fluoro-phenyl)-5-ethoxycarbonyl-2-(5-methyl-oxazol-4-yl)-3,6-dihydro-pyrimidin-4-ylmethyl]-morpholine-3-carboxylic acid]	6 nM	57000 nM	9500	0 mL/min/kg	> 658 µg/mL
COC(=O)C1=C(CN2CCO[C@H](C)[C@H]2C(=O)O)NC(c2nccs2)=N[C@H]1c1ccc(F)c(F)c1F [Example 114, (2R,3S)-4-[(R)-5-Methoxycarbonyl-2-thiazol-2-yl-6-(2,3,4-trifluoro-phenyl)-3,6-dihydro-pyrimidin-4-ylmethyl]-2-methyl-morpholine-3-carboxylic acid]	9.3 nM	> 100000 nM	>10753	0 mL/min/kg	> 617 µg/mL
CCOC(=O)C1=C(CN2CCOC[C@H]2C(=O)O)NC(c2nccs2)=N[C@H]1c1ccc(Cl)cc1F [Example 49, (S)-4-[(R)-6-(4-Chloro-2-fluoro-phenyl)-5-ethoxycarbonyl-2-thiazol-2-yl-3,6-dihydro-pyrimidin-4-ylmethyl]-morpholine-3-carboxylic acid]	4.7 nM	42000 nM	8936	0 mL/min/kg	> 679 µg/mL
CCOC(=O)C1=C(CN2CCOC[C@H]2C(=O)O)NC(c2nccs2)=N[C@H]1c1ccc(Cl)c(Cl)c1 [Example 46, (S)-4-[(S)-6-(3,4-Dichloro-phenyl)-5-ethoxycarbonyl-2-thiazol-2-yl-3,6-dihydro-pyrimidin-4-ylmethyl]-morpholine-3-carboxylic acid]	16 nM	36000 nM	2212	0 mL/min/kg	> 655 µg/mL
COC(=O)C1=C(CN2CCOC[C@H]2C(=O)O)NC(c2nc(SC)cs2)=N[C@H]1c1ccc(F)cc1Cl [Example 61, (3S)-4-[[(4R)-4-(2-Chloro-4-fluorophenyl)-5-methoxycarbonyl-2-(4-methylsulfanyl-1,3-thiazol-2-yl)-1,4-dihydropyrimidin-6-yl]methyl]morpholine-3-carboxylic acid]	18 nM	56000 nM	3133	–	495 µg/mL (≈ 915 µM)
